Experimental findings from patent publication US20080182835A1 (priority 2006, published 2008) are described below.

Data set [1] relates to BHK cells infected with Sindbis virus. Put plainly: Cell viability of Sindbis-infected BHK cells, Trypan blue dye-exclusion and light microscopy. The format is cell-based, hamster. The settings on record: for cell viability (viable cell count): 48 hour infection. Here is the method: Additional cell viability studies were done using a combined assessment of cellular morphology via light microscopy, or visual inspection of cell viability, and plasma membrane integrity measurements using a Trypan blue dye-exclusion assay. Specifically, BHK cells were seeded to the wells of a 96-well plate (2×10^4 cells/well) and cultured overnight in complete growth medium. […] After a 48 hour infection period, the cells were resuspended and an aliquot of cells (10 μL) was mixed with 90 μL 0.2% trypan blue. The number of viable cells was determined by counting with a hemocytometer.
Also, a corresponding set of wells was identically prepared exclusively for observation using Trypan blue staining and light microscopy. FIGS. 6A-6H are light microscopy images showing cell morphology at various concentrations of Co(NH3)6 at 48 hours post infection following 6 hours of pretreatment with Co(NH3)6. […] Viable cells remain attached to the tissue culture substrate and have an elongated, epithelial cell-like appearance. The arrows in FIGS. 6E-6G indicate examples of cells that have retained an elongated and adherent morphology. Non-viable cells are detached from the tissue culture substrate and are rounded. FIGS. 6B-6H illustrate that pronounced cell death is apparent in the presence of no Co(NH3)6 (FIG. 6B) and at lower concentrations of Co(NH3)6 (FIGS. 6C and 6D).

The next data set deals with SV-infected BHK cells. Put plainly: Flow cytometry propidium iodide viability of Sindbis-infected BHK cells. The format is cell-based, hamster. For orientation: Flow cytometry measures light scatter and fluorescence of single cells or particles in a stream.

On to Co(NH3)6, for which the “cell viability (viable cell count)” value in data set [1] (Sindbis-infected, 6 hours pretreatment, at 1.2 mM) is listed as 80%; in data set [1] (Sindbis-infected, at 0.15 mM) it was “further decreased viability”. The “cell morphology, viable cells by light microscopy” value in data set [1] (Sindbis-infected, 48 hours post infection, at 0.6 and 1.2 mM) was “viable cells appeared more pronounced”. Also, the “concentration providing optimal protection against Sindbis virus” value in data set [1] (light microscopy and cell viability count) stood at 1.2 mM. Further, in the data set on SV-infected BHK cells (at 0.15 mM, relative to untreated infected cells), the “percentage of PI-positive (non-viable) cells” value is “significantly lower percentage”. The “effect of timing of treatment on survivability of the cells” value in the data set on SV-infected BHK cells (pretreatment, co-infection, 2, 4 and 24 hours post-infection) is given as “very little effect”.
